According to paper PMC5382172 (Frontiers in Molecular Neuroscience, 2017):
Values joined by “and” are separate entries in the source; they are usually repeats but may differ in a detail not shown here. Identical values can stand only once.

Legend:
GluClαWT/βWT receptor [1] = biological target: T1, GluClαWT/βWT receptor (Caenorhabditis elegans, UniProt G5EBR3+Q17328); assay: Whole-cell patch clamp in CHO cells, GluClαWT/βWT receptor; format: cell-based
T1 construct: entry codes of the full-length subunits used in this study; expressed in transfected cells; host or cells: CHO cells, transient co-transfection 1:1, pcDNA3.1
T1 sequence (G5EBR3 21-461): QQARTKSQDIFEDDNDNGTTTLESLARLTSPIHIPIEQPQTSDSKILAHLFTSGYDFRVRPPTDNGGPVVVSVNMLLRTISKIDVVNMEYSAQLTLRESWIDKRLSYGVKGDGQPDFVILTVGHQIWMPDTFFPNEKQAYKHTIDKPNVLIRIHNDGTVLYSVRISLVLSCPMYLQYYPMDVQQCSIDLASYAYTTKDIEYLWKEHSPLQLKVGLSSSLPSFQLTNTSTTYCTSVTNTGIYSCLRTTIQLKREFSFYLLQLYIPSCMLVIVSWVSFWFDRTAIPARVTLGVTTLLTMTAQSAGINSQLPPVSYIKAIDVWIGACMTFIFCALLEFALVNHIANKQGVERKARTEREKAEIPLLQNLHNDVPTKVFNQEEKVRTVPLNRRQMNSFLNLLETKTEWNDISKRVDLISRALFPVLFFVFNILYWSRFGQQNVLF
T1 sequence (Q17328 23-434): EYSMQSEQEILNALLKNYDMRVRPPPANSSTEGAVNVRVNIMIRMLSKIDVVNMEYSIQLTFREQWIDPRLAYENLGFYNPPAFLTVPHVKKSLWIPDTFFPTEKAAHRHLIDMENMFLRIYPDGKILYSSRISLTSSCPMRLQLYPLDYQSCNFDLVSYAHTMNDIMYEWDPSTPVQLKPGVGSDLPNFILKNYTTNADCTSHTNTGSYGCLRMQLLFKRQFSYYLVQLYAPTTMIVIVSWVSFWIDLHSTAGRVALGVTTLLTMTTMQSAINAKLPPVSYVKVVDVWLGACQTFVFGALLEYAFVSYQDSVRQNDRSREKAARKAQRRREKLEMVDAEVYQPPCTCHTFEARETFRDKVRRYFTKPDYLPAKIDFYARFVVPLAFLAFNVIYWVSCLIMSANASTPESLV
Method: (§1) Chinese hamster ovary (CHO) cells were cultured as previously (Bar-Lev et al., [2011]) in Dulbecco’s Modified Eagle Medium (DMEM) containing 10% fetal calf serum, 2 mM glutamax, 100 Units/ml penicillin G and 100 μg/ml streptomycin, and grown in 5% CO2 at 37°C under 90%–95% humidity. The cells were seeded on glass coverslips (13-mm diameter) placed in a 24-multiwell plate. […] For the expression of GluCl receptors, cells were transiently co-transfected with pcDNA3.1 plasmids containing the ORFs of interest using transit-LT1 transfection reagent (Mirus, Madison, WI, USA), according to the manufacturer’s protocol. The cDNAs encoding the C. elegans GluClα (GLC-1) or its mutated versions and the GluClβ (GLC-2) subunits (200–600 ng per well) were used at 1:1 ratio. The pIRES-CD8 plasmid (200 ng per well) was added to enable the visualization of the expressing cells by beads coated with anti-CD8 antibodies (Invitrogen). For high-level expression of the GluClαF276A/βWT mutant receptor in experiments assigned to determine its IVM-EC50, we used the X-tremeGENE HP DNA Transfection Reagent (Roche Life Science). Recordings were performed 72–96 h following the transfection.
Whole-cell patch clamp recordings were performed as described previously (Bar-Lev et al., [2011]) in CHO cells that were prepared as detailed above. The normal external solution (NES) contained (in millimolar): 140 NaCl, 2.8 KCl, 2 CaCl2, 2 MgCl2, 10 glucose and 10 HEPES, adjusted to pH 7.35 with NaOH (310 mOsm/L). The pipette solution contained (in millimolar): 130 KCl, 4 MgCl2, 4 Na2ATP, 1 EGTA and 10 HEPES, adjusted to pH 7.35 with KOH (290 mOsm/L). The osmolarity of these solutions was maintained by adding sucrose. The electrode resistance was 6–10 MΩ when filled with the pipette solution. External solutions were applied onto the cell by using the VC-77SP fast-step system (Warner Instruments, Hamden, CT, USA) combined with N2 pressure of 3–4 psi to produce laminar flow of the external solution onto the patched cell. All measurements were performed at room temperature. The currents were measured with an Axopatch 200B patch-clamp amplifier (Molecular Devices, Sunnyvale, CA, USA) and a Digidata 1440A interface (Molecular Devices). Acquisition of recording data was performed at 2.5 kHz and recordings were low-pass filtered at 1 kHz, through a four-pole Bessel filter. The pClamp 10 software (Molecular Devices) was used for data acquisition. […] Five-hundred milliseconds after the application started (which is also after the current reached to its peak at −60 mV), the voltage was stepped from −60 mV to −80 mV for 50 ms followed by a 250-ms-long voltage ramp ranging from −80 mV to +80 mV.
Dose-response curves were fitted to the data points by a nonlinear regression using the Hill Equation 1,

[2] = biological target: T2, GluClαWT (GLC-1) homomeric receptor (Caenorhabditis elegans, UniProt G5EBR3); assay: Whole-cell patch clamp in CHO cells transfected with GluClαWT subunit alone; format: cell-based; conditions: αWT alone, 500 nM IVM, -60 mV
T2 construct: entry codes of the full-length subunits used in this study; expressed in transfected cells; host or cells: CHO cells, transient transfection, pcDNA3.1
T2 sequence (G5EBR3 21-461): T1 sequence (G5EBR3 21-461)

GluClαF276W/βWT receptor = biological target: T3, GluClαF276W/βWT receptor (Caenorhabditis elegans, UniProt G5EBR3+Q17328, F276W); assay: Whole-cell patch clamp in CHO cells, GluClαF276W/βWT receptor; format: cell-based; conditions: 500 nM IVM, -60 mV
T3 construct: entry codes of the full-length subunits used in this study; expressed in transfected cells; host or cells: CHO cells, transient co-transfection 1:1, pcDNA3.1
T3 sequence (G5EBR3 21-461 F276W, one chain of several): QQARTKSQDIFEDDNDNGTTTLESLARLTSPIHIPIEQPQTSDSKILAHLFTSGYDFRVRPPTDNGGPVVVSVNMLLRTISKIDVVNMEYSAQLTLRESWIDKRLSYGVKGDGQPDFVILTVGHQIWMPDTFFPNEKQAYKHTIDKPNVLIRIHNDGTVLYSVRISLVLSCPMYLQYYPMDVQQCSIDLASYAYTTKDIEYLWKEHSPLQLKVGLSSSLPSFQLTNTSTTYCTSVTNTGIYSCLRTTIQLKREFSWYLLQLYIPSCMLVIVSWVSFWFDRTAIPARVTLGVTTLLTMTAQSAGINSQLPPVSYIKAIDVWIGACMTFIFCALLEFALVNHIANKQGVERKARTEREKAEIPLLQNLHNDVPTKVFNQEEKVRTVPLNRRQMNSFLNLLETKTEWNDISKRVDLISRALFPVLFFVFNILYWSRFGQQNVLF
Method: as §1, with “For high-level expression of the GluClαF276A/βWT mutant receptor in experiments assigned to determine its IVM-EC50, we used the X-tremeGENE HP DNA Transfection Reagent (Roche Life Science). Recordings were performed 72–96 h following the transfection.” left out
(§2) Whole-cell patch clamp recordings were performed as described previously (Bar-Lev et al., [2011]) in CHO cells that were prepared as detailed above. […] The currents were measured with an Axopatch 200B patch-clamp amplifier (Molecular Devices, Sunnyvale, CA, USA) and a Digidata 1440A interface (Molecular Devices). […]

GluClαP192Y/βWT receptor = biological target: T4, GluClαP192Y/βWT receptor (Caenorhabditis elegans, UniProt G5EBR3+Q17328, P192Y); assay: Whole-cell patch clamp in CHO cells, GluClαP192Y/βWT receptor; format: cell-based; conditions: 500 nM IVM, -60 mV
T4 construct: entry codes of the full-length subunits used in this study; expressed in transfected cells; host or cells: CHO cells, transient co-transfection 1:1, pcDNA3.1
T4 sequence (G5EBR3 21-461 P192Y, one chain of several): as the sequence (G5EBR3 21-461 F276W, one chain of several) above, with P172Y, W256F counted along it
Method: as §1, with “For high-level expression of the GluClαF276A/βWT mutant receptor in experiments assigned to determine its IVM-EC50, we used the X-tremeGENE HP DNA Transfection Reagent (Roche Life Science). Recordings were performed 72–96 h following the transfection.” left out
as §2

[3] = biological target: T5, GluClα[SSS→GSD]/βWT receptor (Caenorhabditis elegans, UniProt G5EBR3+Q17328, S236G/S238D); assay: Whole-cell patch clamp in CHO cells, GluClα[SSS→GSD]/βWT receptor; format: cell-based; conditions: 500 nM IVM, -60 mV
T5 construct: entry codes of the full-length subunits used in this study; expressed in transfected cells; host or cells: CHO cells, transient co-transfection 1:1, pcDNA3.1
T5 sequence (G5EBR3 21-461 S236G/S238D, one chain of several): as the sequence (G5EBR3 21-461 F276W, one chain of several) above, with S216G, S218D, W256F counted along it
Method: as §1, with “For high-level expression of the GluClαF276A/βWT mutant receptor in experiments assigned to determine its IVM-EC50, we used the X-tremeGENE HP DNA Transfection Reagent (Roche Life Science). Recordings were performed 72–96 h following the transfection.” left out
as §2

GluClαWT/βWT receptor [4] = biological target: T1, GluClαWT/βWT receptor; parameters: method as in Degani-Katzav et al., [2016]; conditions: CHO cells co-transfected with WT α and β subunits; ref Degani-Katzav et al., [2016]; cited from earlier work
[5] = cumulative IVM concentrations, -60 mV

CC[C@H](C)[C@H]1O[C@]2(CC[C@@H]1C)C[C@@H]1C[C@@H](C/C=C(\C)[C@@H](O[C@H]3C[C@H](OC)[C@@H](O[C@H]4C[C@H](OC)[C@@H](O)[C@H](C)O4)[C@H](C)O3)[C@@H](C)/C=C/C=C3\CO[C@@H]4[C@H](O)C(C)=C[C@@H](C(=O)O1)[C@]34O)O2 [IVM, ivermectin]
Fold decrease in Glu-EC50 observed after pre-exposure to IVM (GluClαWT/βWT receptor [1]; 7 nM IVM): ~ 5 fold and 5 fold
fold-potentiation of Glu-elicited response by IVM (GluClαWT/βWT receptor [1]; 0.3 mM Glu before and after exposure to 7 nM IVM): ~ 6 fold and 5.9 ± 0.6 fold
IVM (500 nM) Amplitude (GluClαWT/βWT receptor [1]; CHO cells, 500 nM IVM, -60 mV): 1.8 ± 0.1 nA
EC50 (GluClαWT/βWT receptor [1]; [5]): 40 nM
Hill coefficient of activation by IVM (GluClαWT/βWT receptor [1]; [5]): 1.5 and 1.5 ± 0.2
IVM (500 nM) Amplitude [2]: 1.0 ± 0.3 (14) nA
IVM (500 nM) Amplitude (GluClαF276W/βWT receptor): 1.2 ± 0.2 nA
IVM (500 nM) Amplitude (GluClαP192Y/βWT receptor): 1.2 ± 0.2 nA
IVM (500 nM) Amplitude [3]: 1.8 ± 0.4 nA
response to IVM (GluClαWT/βWT receptor [4]): robust responses
